Experimental data published in PubChem BioAssay (NCI).
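Method: 48-hour compound exposure of cells in 96-well plates, five concentrations, linear interpolation of endpoints. GI50 = concentration required for 50% inhibition of growth. TGI marks complete inhibition of growth.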

What was measured:
Test in all cases: NCI tumour cell line growth inhibition, 48 h
[1] = system: NCI/ADR-RES ovarian
[2] = system: ACHN renal
[3] = system: RXF 393 renal
[4] = system: SF-539 CNS
[5] = system: NCI-H226 lung
[6] = system: MOLT-4 leukemia
[7] = system: K-562 leukemia
[8] = system: CCRF-CEM leukemia
[9] = system: SW-620 colon
[10] = system: NCI-H23 lung
[11] = system: SNB-75 CNS
[12] = system: SK-OV-3 ovarian
[13] = system: HOP-92 NSCLC
[14] = system: HCT-116 colon
[15] = system: HL-60(TB) leukemia
[16] = system: HCC-2998 colon
[17] = system: SK-MEL-5 melanoma
[18] = system: SR leukemia
[19] = system: M14 melanoma
[20] = system: OVCAR-4 ovarian
[21] = system: UACC-62 melanoma
[22] = system: COLO 205 colon
[23] = system: RPMI-8226 leukemia
[24] = system: HCT-15 colon
[25] = system: CAKI-1 renal
[26] = system: A498 renal
[27] = system: IGROV1 ovarian
[28] = system: EKVX NSCLC
[29] = system: OVCAR-5 ovarian

`C[C@@H]1Cc2c([nH]c3ccccc23)[C@@H](c2c(F)cc(NC3CN(CCCF)C3)cc2F)N1CC(F)(F)CO` showed a GI50 [1] of 4.1 µM, a TGI [1] of 16.6 µM and a GI50 [2] of 4.8 µM. The TGI [2] was 17.1 µM, the GI50 [3] was 4.38 µM and the TGI [3] was 17 µM. It also gave a GI50 [4] of 4.36 µM, a TGI [4] of 15.7 µM and a GI50 [5] of 7.71 µM. The TGI [5] was 25.8 µM, the GI50 [6] was 3.91 µM and the TGI [6] was 20.6 µM. The GI50 [7] was 3.24 µM, the TGI [7] was 11.8 µM and the GI50 [8] was 3.44 µM. For the same compound, the TGI [8] was 15.3 µM, the GI50 [9] was 3.28 µM and the TGI [9] was 13 µM. The GI50 [10] was 11.9 µM, the TGI [10] was 25.6 µM and the GI50 [11] was 4.92 µM. It also gave a TGI [11] of 20.5 µM, a GI50 [12] of 14.4 µM and a TGI [12] of 28.4 µM. For the same compound, the GI50 [13] was 1.15 µM, the TGI [13] was 6.36 µM and the GI50 [14] was 1.94 µM. It also gave a TGI [14] of 3.83 µM, a GI50 [15] of 4.9 µM and a TGI [15] of 22.5 µM. The GI50 [16] was 1.93 µM, the TGI [16] was 4 µM and the GI50 [17] was 1.92 µM. For the same compound, the TGI [17] was 3.68 µM, the GI50 [18] was 3.83 µM and the TGI [18] was > 100 µM. The GI50 [19] was 1.87 µM, the TGI [19] was 3.84 µM and the GI50 [20] was 9.86 µM. The TGI [20] was 21.9 µM, the GI50 [21] was 2.35 µM and the TGI [21] was 5.77 µM. For the same compound, the GI50 [22] was 2.35 µM, the TGI [22] was 5.71 µM and the GI50 [23] was 2.82 µM. For the same compound, the TGI [23] was 14.1 µM, the GI50 [24] was 3.5 µM and the TGI [24] was 12.7 µM. For the same compound, the GI50 [25] was 3.66 µM, the TGI [25] was 15.7 µM and the GI50 [26] was 1.64 µM. The TGI [26] was 8.82 µM, the GI50 [27] was 2.77 µM and the TGI [27] was 10.8 µM. The GI50 [28] was 5.41 µM, the TGI [28] was 19.3 µM and the GI50 [29] was 14.1 µM.
